Tested on: LG0703-F498-PDC complex spheroid growth
Test: Anticancer human tumor LG0703-F498-PDC patient-derived lung adenocarcinoma cell line growth inhibition [AhR]
Conditions: for IC50: curve of first compound; for viability, T/C: stronger effect = lower value
Source text: Multicellular complex tumor spheroid response to aryl hydrocarbon receptor antagonists in combination with a variety of drugs and investigational agents in selected tumor cell lines
The current study was undertaken to assess response to aryl hydrocarbon receptor antagonists in combination with standard-of-care drugs and investigational agents in solid tumor complex spheroid models. Complex spheroids include a stromal component modeled by human endothelial cells (HUVEC) and fibroblasts modeled by human mesenchymal stem cells (MSCs). The concentration ranges selected for each drug and investigational agent were based upon clinically achievable concentrations if the clinical Cmax of the agent was known.
Compounds. The drugs and investigational agents: BAY 2416964 (NSC825713), GNF351 (NSC835774), CH-223191 (NSC835775), CPI-455 (NSC825282), aza-TdCyd (NSC777586), decitabine (NSC127716), belinostat (NSC758774), entinostat (NSC756642), pevonedistat (NSC761192), tazemetostat (NSC777109), talazoparib (NSC765396), olaparib (NSC753686), selinexor (NSC780203), nedisertib (M3814, NSC802822), bortezomib (NSC756655), venetoclax (NSC766270), doxorubicin (NSC123127), elimusertib (BAY189344, NSC800525), ceralasertib (AZD6738, NSC777638), TAK-243 (NSC785004), alisertib (NSC759677), etoposide (NSC141540), topotecan (NSC609699), eribulin (NSC707389), gemcitabine (NSC613327), carboplatin (NSC241240), cisplatin (NSC119875), and SN-38 (NSC673596) were obtained from the National Cancer Institute (NCI) Developmental Therapeutics Program Chemical Repository (32). The FDA-approved anticancer drug set is available from the Developmental Therapeutics Program at https://dtp.cancer.gov/organization/dscb/obtaining/available plates.htm. […] The stock solutions were prepared in dimethyl sulfoxide (DMSO, Sigma-Aldrich, St. Louis, MO, cat. D2650), except for the platinum compounds which were prepared in saline (Quality Biological, Gaithersburg, MD, cat. 114-055-101), at 800-fold the tested concentration and stored at -70 degrees C prior to their use. All drugs and investigational agents were tested over a range starting from a high concentration at or near the clinical Cmax and decreasing in half-log increments. If the clinical Cmax for an agent had not been determined, the highest concentration tested was 10 microM (Table 1).
Cell Culture. All cells were maintained in an incubator at 37 degrees C and 5% CO2 with 95% humidity. The PDC lines were cultured according to standard operating procedures established by the NCI PDMR (https://pdmr.cancer.gov). Briefly, all PDCs were thawed and cultured in Matrigel-coated flasks prepared with a working solution of 1X Ham's F-12 nutrient mix, without supplementation (Invitrogen, Waltham, MA, cat. 11765054), 100 U/mL penicillin-streptomycin (Invitrogen, cat. 15140122), and 2.5% Matrigel (Corning Inc., Corning, NY, cat. 354248) for the first three passages. All PDCs were cultured in complete DMEM/F-12 media containing advanced DMEM/F-12 (Invitrogen, cat. 12634028), 4.9% defined fetal bovine serum, heat inactivated (HyClone Laboratories Inc., Logan, UT, cat. SH30070.03HI), 389 ng/mL hydrocortisone (Sigma-Aldrich, cat. H4001), 9.7 ng/mL human EGF recombinant protein (Invitrogen, cat. PHG0313), 23.4 microg/mL adenine (Sigma-Aldrich, cat. A2786), 97.3 U/mL penicillin-streptomycin (Invitrogen, cat. 15140122), 1.9 mM L-glutamine (Invitrogen, cat. 25030081), and 9.7 microM Y-27632 dihydrochloride (Tocris Bioscience, Bristol, United Kingdom, cat. 1254). The PDCs were cultured in complete DMEM/F12 media without 10 microM Y-27632 dihydrochloride for at least two passages prior to the screen. The established cell lines NCI-H1341 and […] were cultured in DMEM/F-12, HEPES (Invitrogen, cat. 11330032), 5% defined fetal bovine serum (HyClone Laboratories Inc., cat. SH30070.03), ITS premix universal culture supplement [insulin (5 microg/mL), transferrin (5 microg/mL), and selenious acid (5 ng/mL)] […]

[1] = second compound 0.1 µM, first compound 0.00316 µM
[2] = second compound 0.1 µM, first compound 0.01 µM
[3] = second compound 0.1 µM, first compound 0.0316 µM
[4] = second compound 0.1 µM, first compound 0.1 µM
[5] = second compound 0.316 µM, first compound 0.00316 µM
[6] = second compound 0.316 µM, first compound 0.01 µM
[7] = second compound 0.316 µM, first compound 0.0316 µM
[8] = second compound 0.316 µM, first compound 0.1 µM
[9] = second compound 1 µM, first compound 0.00316 µM
[10] = second compound 1 µM, first compound 0.01 µM
[11] = second compound 1 µM, first compound 0.0316 µM
[12] = second compound 1 µM, first compound 0.1 µM
[13] = second compound 3.16 µM, first compound 0.00316 µM
[14] = second compound 3.16 µM, first compound 0.01 µM
[15] = second compound 3.16 µM, first compound 0.0316 µM
[16] = second compound 3.16 µM, first compound 0.1 µM
[17] = second compound 10 µM, first compound 0.00316 µM
[18] = second compound 10 µM, first compound 0.01 µM
[19] = second compound 10 µM, first compound 0.0316 µM
[20] = second compound 10 µM, first compound 0.1 µM
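Further: luminescence taken as a proxy for viable cell amount.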
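Wherever viability, T/C is given: percent of DMSO vehicle control where 100% means growth equal to vehicle.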

SMILES	IC50 (second compound 0.1 µM) [nM]	IC50 (second compound 0.316 µM) [nM]	IC50 (second compound 1 µM) [nM]	IC50 (second compound 3.16 µM) [nM]	IC50 (second compound 10 µM) [nM]	viability, T/C [1] [%]	viability, T/C [2] [%]	viability, T/C [3] [%]	viability, T/C [4] [%]	viability, T/C [5] [%]	viability, T/C [6] [%]	viability, T/C [7] [%]	viability, T/C [8] [%]	viability, T/C [9] [%]	viability, T/C [10] [%]	viability, T/C [11] [%]	viability, T/C [12] [%]	viability, T/C [13] [%]	viability, T/C [14] [%]	viability, T/C [15] [%]	also measured
Cn1ncnc1C1c2n[nH]c(=O)c3cc(F)cc(c23)NC1c1ccc(F)cc1 (stereo not given) + Cc1ccccc1N=Nc1ccc(NC(=O)c2ccnn2C)c(C)c1	> 100	> 100	> 100	> 100	> 100	103	95.2	104	89.7	92.6	94.3	85.5	88.1	83.3	79.6	95.9	83.1	88	78.3	79.7	viability, T/C (second compound 0.1 µM, first compound 0.000316 µM): 97.2%; viability, T/C (second compound 0.1 µM, first compound 0.001 µM): 88.6%; viability, T/C (second compound 0.316 µM, first compound 0.000316 µM): 93.8%; viability, T/C (second compound 0.316 µM, first compound 0.001 µM): 98.1%; viability, T/C (second compound 1 µM, first compound 0.000316 µM): 93.5%; viability, T/C (second compound 1 µM, first compound 0.001 µM): 89.4%; viability, T/C (second compound 3.16 µM, first compound 0.000316 µM): 84.9%; viability, T/C (second compound 3.16 µM, first compound 0.001 µM): 79.9%; viability, T/C [16]: 75.9%; viability, T/C (second compound 10 µM, first compound 0.000316 µM): 84.2%; viability, T/C (second compound 10 µM, first compound 0.001 µM): 85.2%; viability, T/C [17]: 77.9%; viability, T/C [18]: 85.9%; viability, T/C [19]: 79.4%; viability, T/C [20]: 79.5%
CC1COCCN1c1cc(-c2ccnn2C)c2ccnc(-c3ccn[nH]3)c2n1 (stereo not given) + Cc1ccccc1N=Nc1ccc(NC(=O)c2ccnn2C)c(C)c1	514	678	306	406	592	88.3	88.5	82.4	72	98	110	90.6	73.1	94.4	79.8	91.6	73.6	92.8	79.7	69.7	viability, T/C (second compound 0.1 µM, first compound 0.316 µM): 56.3%; viability, T/C (second compound 0.1 µM, first compound 1 µM): 41.5%; viability, T/C (second compound 0.316 µM, first compound 0.316 µM): 58.4%; viability, T/C (second compound 0.316 µM, first compound 1 µM): 45.6%; viability, T/C (second compound 1 µM, first compound 0.316 µM): 50%; viability, T/C (second compound 1 µM, first compound 1 µM): 38.4%; viability, T/C [16]: 78%; viability, T/C (second compound 3.16 µM, first compound 0.316 µM): 49.3%; viability, T/C (second compound 3.16 µM, first compound 1 µM): 37%; viability, T/C [17]: 86.6%; viability, T/C [18]: 81.7%; viability, T/C [19]: 97.2%; viability, T/C [20]: 72.9%; viability, T/C (second compound 10 µM, first compound 0.316 µM): 59.8%; viability, T/C (second compound 10 µM, first compound 1 µM): 42.8%

Source: PubChem BioAssay AID1919013 (Molecular Pharmacology Branch, DTP, NCI, 2023)
